PubChem BioAssay AID210 (DTP/NCI, 2004)
Several values for one entry are separate records, joined by “and”; a condition that tells them apart may be missing. Identical values can stand only once. Toxic doses and inconclusive results are not listed.

Test system: CD2F1 mice, ip Colon 26 adenocarcinoma, median survival T/C
Assay: NCI In Vivo Anticancer Drug Screen. Data for tumor model Colon 26 Adenocarcinoma (intraperitoneal) in CD2F1 (CDF1) mice
Conditions: endpoint: median survival time, higher = longer survival
Experimental: The antitumor activity of compounds was measured in mice bearing transplantable tumors. Survival or tumor size were measured and the results are expressed as the measurement made in the treated group (T) divided by the measurement made in the vehicle treated control group (C). The tumor model used in this assay is Colon 26 Adenocarcinoma (intraperitoneal) in CD2F1 (CDF1) mice

[1] = dose: 2.0 mg/kg/injection, schedule: Q04DX003 (ip), vehicle: Klucel (hydroxypropylcellulose) (HPC)

## NC(=O)c1cn(C2OC(CO)C(O)C2O)c2ncnc(N)c12 (stereo not drawn)
[1]
  T/C: 156 % of control

## CN(Cc1cnc2nc(N)nc(N)c2n1)c1c(Cl)cc(C(=O)NC(CCC(=O)O)C(=O)O)cc1Cl (stereo not drawn)
dose: 12.5 mg/kg/injection, schedule: Q04DX003 (ip), vehicle: Klucel (hydroxypropylcellulose) (HPC)
  T/C: 105 % of control
dose: 25.0 mg/kg/injection, schedule: Q04DX003 (ip), vehicle: Klucel (hydroxypropylcellulose) (HPC)
  T/C: 102 % of control
dose: 50.0 mg/kg/injection, schedule: Q04DX003 (ip), vehicle: Klucel (hydroxypropylcellulose) (HPC)
  T/C: 104 % of control
dose: 100.0 mg/kg/injection, schedule: Q04DX003 (ip), vehicle: Klucel (hydroxypropylcellulose) (HPC)
  T/C: 104 % of control
dose: 200.0 mg/kg/injection, schedule: Q04DX003 (ip), vehicle: Klucel (hydroxypropylcellulose) (HPC)
  T/C: 118 % of control

## CCc1ncnc2cc(OCC3CO3)c(OC)cc12 (stereo not drawn)
dose: 25.0 mg/kg/injection, schedule: Q03DX002 (iv), vehicle: saline
  T/C: 90 % of control
dose: 40.0 mg/kg/injection, schedule: Q03DX002 (ip), vehicle: saline
  T/C: 97 % of control
dose: 40.0 mg/kg/injection, schedule: Q03DX002 (sc), vehicle: saline
  T/C: 86 % of control
dose: 60.0 mg/kg/injection, schedule: Q03DX002 (ip), vehicle: saline
  T/C: 114 % of control
dose: 60.0 mg/kg/injection, schedule: Q03DX002 (iv), vehicle: saline
  T/C: 95 % of control
dose: 60.0 mg/kg/injection, schedule: Q03DX002 (sc), vehicle: saline
  T/C: 86 % of control

## OCCN1CCN(CC/C=C2/c3ccccc3Sc3ccc(C(F)(F)F)cc32)CC1
dose: 3.13 mg/kg/injection, schedule: Q04DX003 (ip), vehicle: saline
  T/C: 98 % of control
dose: 6.25 mg/kg/injection, schedule: Q04DX003 (ip), vehicle: saline
  T/C: 91 % of control
dose: 12.5 mg/kg/injection, schedule: Q04DX003 (ip), vehicle: saline
  T/C: 91 % of control

## COc1cccc2c1C(=O)c1c(O)c3c(c(O)c1C2=O)CC(O)(C(=O)CO)CC3OC1CC(N)C(O)C(C)O1 (stereo not drawn)
dose: 1.13 mg/kg/injection, schedule: Q04DX003 (ip), vehicle: water
  T/C: 107 % of control
dose: 2.25 mg/kg/injection, schedule: Q04DX003 (ip), vehicle: water
  T/C: 99 % of control and 113 % of control
dose: 4.5 mg/kg/injection, schedule: Q04DX003 (ip), vehicle: water
  T/C: 113 % of control
dose: 9.0 mg/kg/injection, schedule: Q04DX003 (ip), vehicle: water
  T/C: 116 % of control and 117 % of control
dose: 18.0 mg/kg/injection, schedule: Q04DX003 (ip), vehicle: water
  T/C: 117 % of control
dose: 36.0 mg/kg/injection, schedule: Q04DX003 (ip), vehicle: water
  T/C: 111 % of control
dose: 55.0 mg/kg/injection, schedule: Q07DX002 (iv), vehicle: saline
  T/C: 107 % of control
dose: 74.0 mg/kg/injection, schedule: Q07DX002 (iv), vehicle: saline
  T/C: 112 % of control
dose: 190.0 mg/kg/injection, schedule: Q07DX002 (iv), vehicle: saline
  T/C: 124 % of control

## Nc1ncnc2c1ccn2C1OC(CO)C(O)C1O (stereo not drawn)
dose: 0.5 mg/kg/injection, schedule: Q04DX003 (ip), vehicle: Klucel (hydroxypropylcellulose) (HPC)
  T/C: 98 % of control
dose: 1.0 mg/kg/injection, schedule: Q04DX003 (ip), vehicle: Klucel (hydroxypropylcellulose) (HPC)
  T/C: 119 % of control
[1]
  T/C: 118 % of control
dose: 4.0 mg/kg/injection, schedule: Q04DX003 (ip), vehicle: Klucel (hydroxypropylcellulose) (HPC)
  T/C: 115 % of control

## CCC1(O)CC2CN(CCc3c([nH]c4ccccc34)C(C(=O)OC)(c3cc4c(cc3OC)N(C)C3C(O)(C(N)=O)C(O)C5(CC)C=CCN6CCC43C65)C2)C1 (stereo not drawn) (tested in a mixture with another compound)
dose: 0.13 mg/kg/injection, schedule: Q04DX002 (ip), vehicle: water
  T/C: 101 % of control
dose: 0.25 mg/kg/injection, schedule: Q04DX002 (ip), vehicle: water
  T/C: 103 % of control
dose: 0.5 mg/kg/injection, schedule: Q04DX002 (ip), vehicle: water
  T/C: 104 % of control
dose: 1.0 mg/kg/injection, schedule: Q04DX002 (ip), vehicle: water
  T/C: 113 % of control
dose: 2.0 mg/kg/injection, schedule: Q04DX002 (ip), vehicle: water
  T/C: 118 % of control

## COc1cc(C)c2c(c1C=O)Oc1c(c(C)c(O)c3c1C(O)OC3=O)OC2=O (stereo not drawn)
dose: 3.12 mg/kg/injection, schedule: Q04DX003 (ip), vehicle: saline with Tween-80
  T/C: 103 % of control
dose: 6.25 mg/kg/injection, schedule: Q04DX003 (ip), vehicle: saline with Tween-80
  T/C: 103 % of control
dose: 12.5 mg/kg/injection, schedule: Q04DX003 (ip), vehicle: saline with Tween-80
  T/C: 104 % of control
dose: 25.0 mg/kg/injection, schedule: Q04DX003 (ip), vehicle: saline with Tween-80
  T/C: 101 % of control
dose: 50.0 mg/kg/injection, schedule: Q04DX003 (ip), vehicle: saline with Tween-80
  T/C: 112 % of control
